{
  "source": "patent US20250031744A1",
  "about": "“Methods and Compositions for Managing Blood Glucose Levels Using Rare Sugars” (DiaVita Therapeutics LLC, priority 2023, published 2025)",
  "key": {"[1]": {"test_system": "subject with type 1 diabetes", "test": "Pilot open-label observational study with continuous glucose monitoring, treatment three times per day before meals (Example 1)", "type": "in vivo, human", "conditions": "7.5 g tagatose prior to meals without allulose or ginger", "procedure": "Example 1. A pilot, open-label observational study was conducted on a subject with type 1 diabetes. The subject used a Dexcom® continuous glucose monitoring system which recorded blood sugar levels every five minutes. The subject first completed an extensive control period for roughly two months to obtain background blood sugar levels.\nSubsequently, the subject was administered numerous treatment protocols separated by washout periods of at least 7 days (typically two weeks). […] The subject completed treatments with the following active ingredients: (i) Experimental Treatment 1: tagatose plus allulose plus ginger, (ii) Experimental Treatment 2: tagatose plus ginger, (iii) Experimental Treatment 3: allulose plus ginger, and (iv) Experimental Treatment 4: a second treatment course comprising tagatose plus allulose plus ginger. […]\nBlood sugar levels were recorded every five minutes using the continuous glucose monitoring system. Primary endpoints were (i) average blood sugar level over the course of treatment, (ii) number of five minute periods with blood sugar level over 180 mg/dL (“time with high blood sugar”) and (iii) “hyperglycemia index”, calculated as the fraction of time with blood sugar level over 250 mg/dL multiplied by the average magnitude of the these hyperglycemic periods (defined as the difference in mg/dL between the recorded blood sugar level and 250). […]"}, "subjects": {"test_system": "subjects", "test": "Experimental treatment with tagatose alone, gastrointestinal side effects", "type": "in vivo, human", "conditions": "no co-administration of allulose or ginger; treatment stopped after a couple of days", "from_the_text": "Both tagatose and allulose can give rise to significant gastrointestinal side effects (e.g., bloating, flatulence, abdominal pain, diarrhea). In our personal experience and anecdotally, the GI side effects are more significant for tagatose than allulose."}},
  "data": [
    {"smiles": "O=C(CO)[C@@H](O)[C@@H](O)[C@H](O)CO", "note": "[tagatose]", "values": [
      {"measurement": "reason treatment was not completed", "setting": "[1]", "value": "GI discomfort"},
      {"measurement": "GI side effects of tagatose alone", "setting": "subjects", "value": "unpleasant GI side effects reported by a majority of subjects"}
    ]}
  ]
}
